{"source": "patent US20250051762A1", "about": "“PLATFORM USING DNA-ENCODED SMALL MOLECULE LIBRARIES AND RNA SELECTION TO DESIGN SMALL MOLECULES THAT TARGET RNA” (University of Florida Research Foundation, Incorporated, priority 2021, published 2025)", "key": {"pri-miR-27a": {"system": "pri-miR-27a", "test": "RT-qPCR of pri- and mature miR-27a in LNCaP cells", "format": "cell-based, human", "procedure": "(§1) Cell lines. Compounds were tested in MDA-MB-231 TNBC cells (HTB-26, ATCC), LNCaP metastatic prostate cancer cells (gifted from Junli Luo lab), MCF-7 (HTB-22, ATCC) breast cancer cells, HeLa cervical adenocarcinoma cells (CCL-2, ATCC), and MCF-10a, a model of healthy breast epithelial cells (CRL-10317, ATCC).\n(§2) Cell culture and compound treatment. All cells were maintained at 37° C. with 5% CO2. MDA-MB-231 and LNCaP cells were cultured in RPMI 1640 medium with L-glutamine & 25 mM HEPES (Corning) supplemented with 10% (v/v) fetal bovine serum (FBS; Sigma) and 1× (v/v) Antibiotic-Antimycotic solution (Corning). MCF-7 and HeLa cells were cultured in DMEM medium with 4.5 g/L glucose (Corning), supplemented with 10% FBS, 1× (v/v) Glutagro (Corning), and 1× (v/v) Antibiotic-Antimycotic solution. […]\n(§3) Analysis of mRNA abundance: Each cell line was grown as a monolayer in 12- or 24-well plates and treated as described in “Cell culture and compound treatment”. […] Relative abundance of mature miRNAs was calculated by normalizing to RNU6, and relative abundance for pri-miRNAs and mRNAs was calculated by normalizing to 18S ribosomal RNA, using the AAC, method. […]"}, "mutant pri-miR-27a": {"system": "mutant pri-miR-27a", "test": "Competitive MST binding assay with unlabeled mutated pri-miR-27a", "design": "species or system human", "details": "two 5′GAG/3′CCC loops mutated to base pairs", "procedure": "To measure the affinity of 9 for the 5′GAG/3′CCC loop in the context of pri-miR-27a, a competitive binding assay was used with a constant concentration of compound (100 nM) and the Cy5-labeled model of pri-miR-27a's Drosha site, and varying concentrations of unlabeled miR-27a precursor as reported by miRBase. (35) That is, the miR-27a precursor competes with the Cy5-labeled model of pri-miR-27a's Drosha site for binding 9. […] Thus, the compounds identified by using DEL-2DCS can bind avidly to biologically relevant RNA targets identified by Inforna.\nFor competitive binding assays, both WT and mutant pri-miR-27a RNAs were transcribed as previously described (see Table S6 for sequences). (11) The RNA was purified by gel electrophoresis and folded in 1× Binding Buffer at final concentration of 750 nM by heating at 60° C. for 5 min and then slowly cooling to room temperature. […] The resulting data were analyzed by SigmaPlot and fitted by Equation 2 to yield the competitive dissociation constant (Kd competitive).\nwhere F is the concentration of fluorescence-labeled RNA; unbound and bound refers to the thermophoresis signal at completely unbound and bound state of RNA, respectively; c is the concentration of the compound; f (c) is the thermophoresis signal at compound concentration of c; Kd is the dissociation constant. […]"}, "WT pri-miR-27a": {"system": "WT pri-miR-27a", "test": "RT-qPCR of miR-27a biogenesis in MCF-10a cells transfected with WT pri-miR-27a", "format": "cell-based, human", "details": "WT pri-miR-27a plasmid, 48 h", "from_the_text": "To gauge the specificity of 9 for pri-miR-27a, inhibition of biogenesis was first studied in a cellular model of healthy breast epithelium, MCF-10a, in which miR-27a expression is not detectable (Ct>31). MCF-10a cells were transfected with a plasmid encoding WT pri-miR-27a or mutant in which the two 5′GAG/3′CCC internal loops at and nearby the Drosha processing site were mutated to base pairs. In the absence of compound treatment, both primary miRNA transcripts were processed similarly, generating mature miR-27a, as determined by RT-qPCR.\nas §1\nCell culture and compound treatment. All cells were maintained at 37° C. with 5% CO2. […]\nas §3"}, "MDA-MB-231 cells": {"system": "MDA-MB-231 cells", "test": "Migration assay of MDA-MB-231 cells", "format": "cell-based, human", "procedure": "Migration assay: MDA-MB-231 cells were grown in 60 mm diameter dishes and treated as described in “Cell culture and compound treatment” for 12 h. The medium was then removed and replaced with growth medium lacking FBS but with the same concentration of compound. After 12 h of serum starvation, the cells were detached and seeded to ThinCert™ (GBO) 24-well hanging inserts with 8 μm pores (˜5×10^4 cells per insert). Fresh growth medium with FBS was dispended in a 24-well plate (600 μL each well), and the ThinCert™ hanging inserts containing cells were then placed into the wells. After incubating for 24 h, the growth medium in the inserts was removed, and the remaining cells were washed twice with 1×DPBS. Cells were fixed by addition of 3% (w/v) paraformaldehyde (PFA) prepared in 1×DPBS at room temperature for 20 min. The PFA solution was removed, and cells were washed twice with 1×PBS. The cells were then stained with Crystal Violet (10 mg/mL; 4:1 H2O: MeOH) at room temperature for 20 min. A cotton swab was used to gently remove non-migrating cells from the top side of the filter. The remaining cells were then imaged by microscopy and counted for quantification (3 fields of view per sample)."}, "miR-24-2": {"system": "miR-24-2", "test": "RT-qPCR of mature miR-24-2 in MDA-MB-231 cells", "format": "cell-based, human", "procedure": "as §1, §2, §3"}}}
{"smiles": "C#CCN(CC(N)=O)C(=O)C[C@H](Cc1c[nH]c2ccccc12)NC(=O)[C@@H]1C[C@H](NC(=O)Cn2c(=O)[nH]c3ccccc3c2=O)CN1", "note": "[Compound 9]", "values": [{"measurement": "dose with significant inhibition of miR-27a processing", "setting": "pri-miR-27a", "result": 100, "unit": "nM"}, {"measurement": "binding (competitive)", "setting": "mutant pri-miR-27a", "result": "binding was abolished"}, {"measurement": "mature miR-27a levels", "setting": "WT pri-miR-27a", "result": "reduction"}, {"measurement": "pri-miR-27a levels", "setting": "WT pri-miR-27a", "result": "increase"}, {"measurement": "number of migrated cells", "setting": "MDA-MB-231 cells; MDA-MB-231, normalized to vehicle", "result": "dose dependent reduction"}, {"measurement": "concentration with statistically significant phenotype reduction", "setting": "MDA-MB-231 cells; MDA-MB-231 migration", "result": 100, "unit": "nM"}, {"measurement": "effect on levels of mature miR-24-2", "setting": "miR-24-2", "result": "no effect"}]}
